# Read-outs that look alike come from different tables or passages of the source.
# B1: Mcl-1s/ΔTM: 271 amino acid pro-apoptotic Mcl-1 splice variant, SEQ ID NO: 3, exon 1 joined to exon 3 (protein, listed as Homo sapiens)
# chain: MFGLKRNAVIGLNLYCGGAGLGAGSGGATRPGGRLLATEKEASARREIGGGEAGAVIGGSAGASPPSTLTPDSRRVARPPPIGAEVPDVTATPARLLFFAPTRRAAPLEEMEAPAADAIMSPEEELDGYEPEPLGKRPAVLPLLELVGESGNNTSTDGSLPSTPPPAEEEEDELYRQSLEIISRYLREQATGAKDTKPMGRSGATSRKALETLRRVGDGVQRNHETVFQGWVCGVLPCRGPRRWHQECAAGFCRCCWSRSWFGISNKIALL
# What was measured:
# Mcl-1 [1] = assay: Endogenous Mcl-1 expression in ML-1 cells exposed to inducers and inhibitors; format: cell-based, human
# ML-1 cells = conditions: cited from earlier work
# Mcl-1 [2] = conditions: cited from earlier work
# [3] = tested on: human Mcl-1 5′-flanking sequence; assay: Transient luciferase expression assay of Mcl-1 reporter plasmids in K-562 cells; format: cell-based
# Text: A 1.7 kilobase (kb) XbaI/XmaI human Mcl-1 genomic fragment representing nucleotide residues −1656 to +160, where +1 denotes the major transcriptional start site, along with a 14 base pair (bp) adapter ligated to its 3′ end to place the luciferase gene in the correct reading frame, was inserted into NheI and HindIII digested pGL2-Basic luciferase reporter vector (Promega; Madison Wis.), yielding p(−1656)Mcl-1luc.
# A series of 5′-deleted plasmids were constructed by double digestion of p(−1656)Mcl-1luc with SmaI, which cuts just upstream of the Mcl-1 insert, and restriction enzymes known to cut at unique sites within the Mcl-1 insert. […] Additional plasmids were constructed using PCR, including p(−107)Mcl-1luc, p(−51)Mcl-1luc, and p(+11)Mcl-1luc; the PCR products were sequenced to confirm their identity.
# Specific mutations were introduced into the p(−162)Mcl-1luc plasmid using a two stage PCR method of Chen and Boxer (supra, 1995). The Ets site at nucleotides −129 to −121 was converted from CCGGAAGC (SEQ ID NO: 4) to CCTTAAGC (SEQ ID NO: 5;ΔEts); the Sp1 site at nucleotides −118 to −113 was converted from CCGCCC (SEQ ID NO: 6) to CTGACC (SEQ ID NO: 7;ΔSp1); and the SRE at nucleotides −106 to −97 was converted from CCTTTTATGG (SEQ ID NO:8) to CCTTCGGCTG (SEQ ID NO: 9;ΔSRE); altered nucleotides are indicated in bold type. All mutations were verified by sequencing. The PCR products containing the desired mutations were digested with BstEII and EcoRI, and ligated into the p(−162)Mcl-1luc plasmid, which had been digested with the same enzymes.
# Electroporation was carried out with K-562 cells using the following protocol, which was based on preliminary experiments aimed at optimizing luciferase activity. Cells were washed twice and resuspended in PBS (5×10^6 cells in 0.5 ml) in the presence of 10 μg luciferase reporter plasmid, along with the pCMVhGH internal control plasmid used in most experiments (10 μg). After incubation on ice for 10 min, cells were electroporated (960 μF and 280 V; Bio-Rad Gene Pulser; Hercules Calif.), placed on ice for 15 min, then incubated at 37° C. (1×10^5 cells/ml) in Iscove's Modified Dulbecco's medium supplemented with 10% FBS, 100 units/ml penicillin, and 100 μg/ml streptomycin. After 17 hr, the cell suspension was divided into two portions, one of which was left untreated and the other of which was exposed to 1.7×10^−9 M TPA, which increased Mcl-1 expression in K-562 cells in a manner equivalent to that observed with 5×10^−10 TPA in ML-1 cells (Pahl et al., Expt. Hematol. 19:1038-1041 (1991), which is incorporated herein by reference). After 7 hr of exposure to TPA, when induction was at or near a peak level, cells were washed with PBS, then assayed in triplicate for luciferase activity (relative light units; Brasier et al., In “Current Protocols in Molecular Biology (Ausubel et al., eds.; John Wiley & Sons, N.Y. 1995), which is incorporated herein by reference; see pages 9.7.12-9.7.21) using a Microlite ML2250 Microtiter plate luminometer (Dynatech Laboratories; Chantilly Va.).
# In most experiments, a human growth hormone reporter plasmid, pCMVhGH (10 μg), was used as a control for transfection efficiency. pCMVhGH yielded a linear increase in activity upon transfection with 2 to 10 μg plasmid, where activity with 2 μg of plasmid was near the limit of sensitivity of the hGH assay, but activity with 5 to 10 μg was sufficiently above background to be accurately quantified.
# The experimental design, wherein an aliquot of cells electroporated with a test plasmid is divided into two portions, one of which was exposed to TPA and the other of which was not, was selected because CMV-based plasmids are subject to induction by TPA. […] Luciferase activity in both portions of cells was normalized to hGH production (assayed in triplicate in the portion of the sample not exposed to TPA).
# Erk-1 and Erk-2 = assay: Phosphorylation state of MAP kinase proteins in ML-1 cells; format: cell-based, human
# Hela cells = assay: Transient transfection cell death assay in Hela cells (β-gal marker, morphology scoring); format: cell-based, human
# Protocol: Two types of expression constructs were prepared for use in transfection into mammalian cells. In one set of constructs, Mcl-1 or the Mcl-1s/ΔTM variant were expressed in the pCR3.1 vector; in the second set of constructs, Mcl-1 was fused to green fluorescent protein (GFP). The Mcl-1 RT-PCR reaction products from the F4/R4 primer pair reactions (SEQ ID NOS: 15 and 17, respectively; cloned in pCR3.1) were digested with KpnI (a KpnI site is present in the F4 primer; SEQ ID NO: 15) and HindIII, as was full length Mcl-1(Mcl-1 clone p3.2 in pBluescriptII SK); Kozopas et al., supra, 1993) and the resulting 5′ region of the cDNA was isolated and ligated into pCR3.1 to yield full length Mcl-1 and Mcl-1s/ΔM. […]
# The pCR3.1-based Mcl-1 clones were transiently transfected into subconfluent monolayers of Hela cells in 12 well plates using SUPERFECT (Qiagen). […] Forty hr after transfection, cells were fixed, stained for β-gal activity, and analyzed microscopically to assess cell morphology. Transfection experiments were performed in a double blind manner and cells were scored either as having a normal, viable morphology (flat, healthy cells) or an abnormal morphology characteristic of dying cells (dense, rounded, detaching cells). All blue staining cells in each dish were counted and the results were expressed as percentages of cells with viable versus dying phenotypes.
molecule,measurement,setting,value
COc1cccc(-c2cc(=O)c3ccccc3o2)c1N [PD 98059],"effect on up-regulation of Mcl-1 expression by TPA, colchicine and vinblastine",Mcl-1 [1]; ML-1 cells,prevented
same,cell death,ML-1 cells; ERK inhibitor applied alone,not accompanied by cell death
same,cell death,ML-1 cells; ERK inhibitor applied in conjunction with TPA,cells died by apoptosis
same,basal Mcl-1 expression relative to value in the absence of PD 98059,"Mcl-1 [2]; endogenously expressing cells, 8.5 hr assay period",about 25%
same,induction of endogenous Mcl-1 by TPA in the presence of PD 98059,Mcl-1 [2]; endogenously expressing cells,about 3.5 fold
same,decrease of TPA-induced luciferase activity,"[3]; K-562 cells, 1654 base pair reporter, PD 98059 prior to TPA exposure",78%
same,effect on TPA-induced increase in luciferase activity,"[3]; K-562 cells, FIG. 2C","substantially, but not completely, inhibited"
same,effect on basal luciferase activity,"[3]; K-562 transfected cells, absence of TPA",caused a decline in basal activity
"CCCCCCCCCCCCCC(=O)O[C@@H]1[C@@H](C)[C@@]2(O)[C@@H](C=C(CO)C[C@]3(O)C(=O)C(C)=C[C@@H]23)[C@@H]2C(C)(C)[C@]12OC(C)=O [TPA, 12-O-tetradecanoylphorbol acetate]",Mcl-1 expression,Mcl-1 [1]; ML-1 cells,induced
same,time at which increase in Mcl-1 mRNA is detectable,Mcl-1 [2]; ML-1 cells,≤ 1 h
same,Mcl-1 mRNA level relative to peak value,"Mcl-1 [2]; ML-1 cells, within 1 day",about 50%
same,Mcl-1 level with TPA above low basal level,Mcl-1 [2]; TPA without ERK inhibitor,~10 fold
same,phosphorylation of Erk-1 and Erk-2,Erk-1 and Erk-2,increased phosphorylation
same,increase in reporter gene activity in response to TPA,[3]; 162 bp segment of human Mcl-1 5′-flanking sequence,approximately 10 fold
same,induction of luciferase activity by TPA,"[3]; K-562 cells, Mcl-1-luciferase reporter constructs, test of cell lines",about 10 fold
same,increase in luciferase activity after treatment with TPA,"[3]; K-562 cells, luciferase reporter driven by 1654 base pair segment of Mcl-1 5′ flanking region",approximately 8 fold
same,increase in activity in the presence of TPA over reduced basal value,"[3]; K-562 cells, p(−107)Mcl-1luc and p(−51)Mcl-1luc",approximately 3.5 fold
same,induction by TPA,"[3]; K-562 cells, p(−162)Mcl-1luc site mutation experiment (FIG. 3C)",9 fold
same,increase in luciferase activity in the presence of TPA,"[3]; K-562 cells, p(−1656)Mcl-1luc",about 10 fold
same,fold-induction by TPA,"[3]; K-562 cells, wild-type plasmid, additional experiments",about 11 fold
same,fold-induction by TPA above reduced basal value,"[3]; K-562 cells, ΔSRE/ΔEts plasmid",about 4 fold
same,induction of luciferase activity by TPA,"[3]; p(−162)Mcl-1luc and p(−1663)Mcl-1luc, absence of pCMVhGH",about 13.5 fold
same,induction of luciferase activity by TPA,"[3]; p(−162)Mcl-1luc and p(−1663)Mcl-1luc, presence of pCMVhGH",about 10.5 fold
COc1cc2c(c(OC)c1OC)-c1ccc(OC)c(=O)cc1[C@@H](NC(C)=O)CC2 [colchicine],Mcl-1 expression,Mcl-1 [1]; ML-1 cells,induced
CC(=O)O[C@H]1C(=O)[C@@]2(C)[C@H]([C@H](OC(=O)c3ccccc3)[C@]3(O)C[C@H](OC(=O)[C@H](O)[C@@H](NC(=O)c4ccccc4)c4ccccc4)C(C)=C1C3(C)C)[C@]1(OC(C)=O)CO[C@@H]1C[C@@H]2O [paclitaxel],effect of pretreatment on increase in Mcl-1 expression produced by TPA,Mcl-1 [1],not
same,effect of pretreatment on increase in Mcl-1 expression produced by colchicine or vinblastine,Mcl-1 [1],blocked
CC[C@]1(O)C[C@@H]2CN(CCc3c([nH]c4ccccc34)[C@@](C(=O)OC)(c3cc4c(cc3OC)N(C)[C@H]3[C@@](O)(C(=O)OC)[C@H](OC(C)=O)[C@]5(CC)C=CCN6CC[C@]43[C@@H]65)C2)C1 [vinblastine],Mcl-1 expression,Mcl-1 [1]; ML-1 cells,induced
B1,"killing of cells, quantitated by double blind scoring of blue staining cells",Hela cells,as effective as Bax
